Data taken from patent US20210145842A1, “NEW THERAPEUTIC USES” (NOVARTIS AG, priority 2018, published 2021).
“And” between values parts separate entries of the source, which are not always exact repeats. Equal entries are not always repeated. Where two headings read alike, the source gives them in different places.

Legend:
[1] = Distribution of nazartinib to the brain in a preclinical model; assay type: in vivo
[2] = tested on: EGFR mutant (L858R, ex19del and T790M) cancer models; conditions: cited from earlier work
[3] = tested on: patients with advanced EGFR-mutant NSCLC harbouring activating EGFR L858R and/or ex19del mutations
[4] = tested on: patients with EGFR T790M-mutant NSCLC who were third-generation EGFR TKI naïve
Procedure: Patients were screened for eligibility across six subgroups according to EGFR mutation status and prior therapy, and treated with nazartinib 75-350 mg (capsule or tablet formulation) orally, once daily (QD), on a continuous 28-day dosing schedule. The primary objective of the Phase I part was to determine the maximum tolerated dose and/or recommended Phase II dose (RP2D).
This was a Phase I/II, multicenter, open-label study of nazartinib in patients with locally advanced/metastatic EGFR-mutant NSCLC.
Nazartinib was administered orally, once daily (QD), on a continuous, 28-day cycle dosing schedule. The starting dose for the Phase I part was 75 mg in capsule formulation. Nazartinib in tablet formulation was also introduced during Phase I. Patients were treated across the following QD dose groups: 75 mg, 100 mg, 150 mg, 200 mg, 225 mg, 300 mg, and 350 mg. Initial cohorts consisted of 1-6 patients.
Patients treated with capsule or with tablet at the same dose level were pooled together into a single treatment group for safety and efficacy analyses. The Full Analysis Set (FAS) consists of all patients who received ≥1 dose of the study drug. Efficacy analyses were performed on all patients in the FAS who had baseline and post-baseline tumor assessment data or who had discontinued prior to post-baseline tumor assessment, and excluded patients with tumors that were wild-type at EGFR T790 or who had received prior third-generation EGFR TKIs, unless otherwise noted.
Duration of response (DoR) and PFS were described using the Kaplan-Meier method.

[5] = tested on: patients with NSCLC; conditions: in vivo; cited from earlier work
[6] = tested on: patients with metastatic NSCLC containing EGFR ex19del or L858R substitution mutations; conditions: EURTAC; erlotinib 150 mg once daily; cited from earlier work
[7] = tested on: patients; conditions: pooled analysis; cited from earlier work
[8] = tested on: patients; conditions: human, in vivo; cited from earlier work
[9] = tested on: patients with EGFR T790M+ NSCLC; conditions: cited from earlier work; for hazard ratio for PFS: 95% CI
[10] = tested on: patients with EGFR mutant NSCLC; conditions: cited from earlier work
[11] = Brain metastases absent at baseline, 14 evaluable patients, preliminary data
[12] = Brain metastases present at baseline, 10 evaluable patients, preliminary data

## Cc1cc(C(=O)Nc2nc3cccc(Cl)c3n2[C@@H]2CCCCN(C(=O)/C=C/CN(C)C)C2)ccn1 [nazartinib, (R,E)-N-(7-chloro-1-(1-(4-(dimethylamino)but-2-enoyl)azepan-3-yl)-1H-benzo [d]imidazol-2-yl)-2-methylisonicotinamide]
[1]
  distribution to the brain: minimal
[2]; several xenograft models
  anti-tumor efficacy: Dose-dependent anti-tumor efficacy
[2]; xenograft models, efficacious doses
  tolerability, body weight: well tolerated with no body weight loss
[3]; 150 mg once daily
  6-month duration of response rate (DoR): 91%
  6-month overall survival rate: 95%
  6-month progression-free survival rate: 83%
  disease control rate: 93%
[3]; 150 mg once daily, 45 patients
  patients who achieved complete response: One
[3]; 150 mg once daily, 45 patients, 95% CI 49%-78%
  ORR per RECIST v1.1 by BICR: 64%
[3]; 150 mg once daily, of 45 patients
  patients who demonstrated a response: Twenty-nine
[3]; [11]
  Best overall response per BIRC: Progressive disease (PD): 0 patients
  Disease control rate (CR + PR + SD + NCRNPD) per BIRC: 14 patients
  Overall response rate per BIRC: 11 patients
[3]; [12]
  Best overall response per BIRC: Complete response (CR): 0 patients
  Best overall response per BIRC: Non-CR/non-PD (NCRNPD): 0 patients
  Disease control rate (CR + PR + SD + NCRNPD) per BIRC: 9 patients
  Overall response rate per BIRC: 5 patients
[3]; of the 27 patients without baseline brain metastasis
  patients who developed a new brain metastasis on study: One
[3]; of the 29 responding patients, cutoff 22 Mar. 2018
  responses ongoing at data cutoff: 27 patients
[3]; person, Cycle 5 Day 1 (study day 113), no prior treatment for brain metastases
  brain post-baseline scan versus baseline by BIRC (single case): complete normalization of brain lesion
[4]; 75 mg QD, N = 12
  Among patients who progressed: Both A and B (A: progression in brain, B: outside of brain, at first PD): 1 patients
  Among patients who progressed: Only A, not B (A: progression in brain, B: outside of brain, at first PD): 1 patients
[4]; 100 mg QD, N = 34
  Among patients with baseline brain metastasis who progressed: Both A and B (A: progression in brain, B: outside of brain, at first PD): 2 patients
  Among patients with baseline brain metastasis who progressed: Only A, not B (A: progression in brain, B: outside of brain, at first PD): 1 patients
  Best response of brain non-target lesions: Absent/normalized: 1 patients
[4]; 150 mg QD dose level
  ORR: 46%
[4]; 150 mg QD, N = 68
  Best response of brain non-target lesions: Absent/normalized: 3 patients
[4]; 200 mg QD, N = 8
  Among patients who progressed: Only A, not B (A: progression in brain, B: outside of brain, at first PD): 1 patients
  Among patients who progressed: Only B, not A (A: progression in brain, B: outside of brain, at first PD): 6 patients
[4]; 225 mg QD
  HBV reactivation leading to hepatic failure and death: one
[4]; 225 mg QD, N = 24
  Among patients who progressed: Only B, not A (A: progression in brain, B: outside of brain, at first PD): 16 patients
  Among patients with baseline brain metastasis who progressed: Only A, not B (A: progression in brain, B: outside of brain, at first PD): 1 patients
  Among patients with baseline brain metastasis who progressed: Only B, not A (A: progression in brain, B: outside of brain, at first PD): 6 patients
  Best response of brain non-target lesions: Absent/normalized: 3 patients
[4]; 162 evaluable patients with EGFR T790M-positive tumors naïve to third-generation EGFR TKIs, 95% CI: 43-59
  best overall response rate across doses: 51%
[4]; All patients, N = 162
  Among patients with baseline brain metastasis who progressed: Only A, not B (A: progression in brain, B: outside of brain, at first PD): five
  Best response of brain non-target lesions: Absent/normalized: 16% and 14%
[4]; across doses, EGFR T790M-positive, third-generation EGFR TKI naïve
  median duration of response: 11.0 months
[4]; across doses, 95% CI: 7.3-11.1
  median progression-free survival (PFS): 9.1 months
[4]; human, in vivo
  most common adverse events: rash, diarrhea, and pruritus
[4]; patients with EGFR T790M-positive tumors naïve to third-generation EGFR TKIs
  overall disease control rate (DCR): 89% and 87%
[4]; person, EGFR ex19del/T790M NSCLC, numerous small brain metastases at baseline
  brain metastases at first post-baseline evaluation (single case): no longer radiologically detectable
[4]; person, EGFR ex19del/T790M NSCLC, numerous small brain metastases at baseline, no prior local therapy to the brain
  duration of overall partial response (single case): 11.1 months

## C#Cc1cccc(Nc2ncnc3cc(OCCOC)c(OCCOC)cc23)c1 [erlotinib]
[5]
  PFS obtained following treatment: 9.7 months
[6]
  median PFS as assessed by the investigator: 9.7 months
[7]
  ILD occurrence: 1.1%

## COc1cc2ncnc(Nc3ccc(F)c(Cl)c3)c2cc1OCCCN1CCOCC1 [gefitinib]
[5]
  PFS obtained following treatment: 9.5 months
[8]
  patients who stopped therapy due to an adverse drug reaction: Approximately 3%
  patients with a severe adverse drug reaction (grade 3 or 4): Approximately 8%

## C=CC(=O)Nc1cc(Nc2nccc(-c3cn(C)c4ccccc34)n2)c(OC)cc1N(C)CCN(C)C [osimertinib]
[9]; AURA3
  median duration of response: 9.7 month
[9]; osimertinib arm of AURA3
  median PFS: 10.1 months
[9]; overall population, 0.23-0.41
  hazard ratio for PFS: 0.30
[9]; patients with CNS metastases, 0.21-0.49
  hazard ratio for PFS: 0.32
[5]
  PFS obtained following treatment: 10.2 months
[10]; FLAURA first-line
  investigator reported median progression-free survival: 18.9 months
  median duration of response: 17.2 months
  objective response rate (ORR): 80%
[10]; any cause
  adverse event: diarrhea: 58%
  adverse event: dry skin: 36%
  adverse event: rash or acne: 58%
[10]; in vivo
  AEs of grade 3 or higher: 34%
[10]; interim analysis
  survival rate at 18 months: 83%
[10]; osimertinib vs standard EGFR-TKIs, 95% CI 0.37 to 0.57, P<0.001
  HR for disease progression or death: 0.46
[10]; osimertinib vs standard EGFR-TKIs, 95% CI, 0.45 to 0.88, P=0.007
  hazard ratio for death: 0.63
[10]; osimertinib vs standard EGFR-TKIs, 95% CI, 0.85 to 1.90, P=0.24
  odds ratio for ORR: 1.27
